Measured values reported in article PMC7686313, “Phase 1 study of mTORC1/2 inhibitor sapanisertib (TAK-228) in advanced solid tumours, with an expansion phase in renal, endometrial or bladder cancer” (British Journal of Cancer, 2020).

Assay: Safety (adverse events, NCI CTCAE v4.0), expansion phase
Conditions: expansion Total (n = 82)
Text: Based on data collected during dose-escalation, the expansion phase evaluated the safety and efficacy of QD and QW sapanisertib in patients with RCC, endometrial or bladder cancer. Patients could continue receiving sapanisertib for ≤1 year (or beyond, if the investigator and sponsor agreed) in the absence of disease progression or unacceptable toxicity.
Patients who received ≥1 dose of sapanisertib were included in the safety population. The response-evaluable population included patients who received ≥1 dose of sapanisertib, had measurable disease at baseline, and had ≥1 postbaseline assessment. […] Adverse events (AEs) were assessed using the National Cancer Institute Common Terminology Criteria for Adverse Events, v4.0. Patients were provided with a home blood-glucose meter to monitor their fasting predose blood-glucose measurements to assess hyperglycaemia as an on-target AE and PD marker.

CC(C)n1nc(-c2ccc3oc(N)nc3c2)c2c(N)ncnc21 [Sapanisertib]
Abdominal pain, all-grade AE of any cause: 17 (21) n (%)
Abdominal pain, grade ≥3 AE of any cause: 3 (4) n (%)
Acute kidney injury, grade ≥3 AE of any cause: 4 (5) n (%)
Acute kidney injury, treatment-related AE: 6 (7) n (%)
Anaemia, all-grade AE of any cause: 19 (23) n (%)
Anaemia, grade ≥3 AE of any cause: 5 (6) n (%)
Anaemia, treatment-related AE: 12 (15) n (%)
Any AE: 82 (100) n (%)
Any AE resulting in dose modification/interruption: 55 (67) n (%)
Any AE resulting in treatment discontinuation: 12 (15) n (%)
Any SAE: 34 (41) n (%)
Any grade ≥3 AE: 58 (71) n (%)
Any treatment-related AE: 82 (100) n (%)
Any treatment-related SAE: 12 (15) n (%)
Any treatment-related grade ≥3 AE: 38 (46) n (%)
Arthralgia, all-grade AE of any cause: 11 (13) n (%)
Asthenia, grade ≥3 AE of any cause: 3 (4) n (%)
Asthenia, treatment-related AE: 12 (15) n (%)
Asthenia, treatment-related grade ≥3 AE: 2 (2) n (%)
Blood creatinine increased, all-grade AE of any cause: 14 (17) n (%)
Blood creatinine increased, treatment-related AE: 8 (10) n (%)
Constipation, all-grade AE of any cause: 28 (34) n (%)
Constipation, grade ≥3 AE of any cause: 2 (2) n (%)
Cough, all-grade AE of any cause: 22 (27) n (%)
Decreased appetite, all-grade AE of any cause: 41 (50) n (%)
Decreased appetite, treatment-related AE: 37 (45) n (%)
Dehydration, all-grade AE of any cause: 17 (21) n (%)
Dehydration, grade ≥3 AE of any cause: 3 (4) n (%)
Dehydration, treatment-related AE: 9 (11) n (%)
Dehydration, treatment-related grade ≥3 AE: 2 (2) n (%)
Depression, all-grade AE of any cause: 8 (10) n (%)
Diarrhoea, all-grade AE of any cause: 41 (50) n (%)
Diarrhoea, grade ≥3 AE of any cause: 3 (4) n (%)
Diarrhoea, treatment-related AE: 35 (43) n (%)
Diarrhoea, treatment-related grade ≥3 AE: 3 (4) n (%)
Dizziness, all-grade AE of any cause: 12 (15) n (%)
Dry mouth, all-grade AE of any cause: 15 (18) n (%)
Dry mouth, treatment-related AE: 10 (12) n (%)
Dysgeusia, all-grade AE of any cause: 17 (21) n (%)
Dysgeusia, treatment-related AE: 16 (20) n (%)
Dyspepsia, treatment-related AE: 6 (7) n (%)
Dyspnoea, grade ≥3 AE of any cause: 2 (2) n (%)
Fatigue, all-grade AE of any cause: 60 (73) n (%)
Fatigue, grade ≥3 AE of any cause: 11 (13) n (%)
Fatigue, treatment-related AE: 56 (68) n (%)
Fatigue, treatment-related grade ≥3 AE: 10 (12) n (%)
Haematuria, grade ≥3 AE of any cause: 2 (2) n (%)
Headache, all-grade AE of any cause: 12 (15) n (%)
Headache, treatment-related AE: 4 (5) n (%)
Hypercholesterolemia, treatment-related AE: 1 (1) n (%)
Hyperglycaemia, all-grade AE of any cause: 50 (61) n (%)
Hyperglycaemia, grade ≥3 AE of any cause: 13 (16) n (%)
Hyperglycaemia, treatment-related AE: 49 (60) n (%)
Hyperglycaemia, treatment-related grade ≥3 AE: 13 (16) n (%)
Hyperkalaemia, grade ≥3 AE of any cause: 2 (2) n (%)
Hypertension, grade ≥3 AE of any cause: 2 (2) n (%)
Hypokalaemia, grade ≥3 AE of any cause: 2 (2) n (%)
Hyponatremia, grade ≥3 AE of any cause: 3 (4) n (%)
Hypophosphatemia, grade ≥3 AE of any cause: 8 (10) n (%)
Hypophosphatemia, treatment-related AE: 9 (11) n (%)
Hypophosphatemia, treatment-related grade ≥3 AE: 6 (7) n (%)
Lymphopenia, grade ≥3 AE of any cause: 2 (2) n (%)
Lymphopenia, treatment-related grade ≥3 AE: 0 (0) n (%)
Musculoskeletal chest pain, grade ≥3 AE of any cause: 2 (2) n (%)
Nausea, all-grade AE of any cause: 54 (66) n (%)
Nausea, grade ≥3 AE of any cause: 5 (6) n (%)
Nausea, treatment-related AE: 51 (62) n (%)
Nausea, treatment-related grade ≥3 AE: 4 (5) n (%)
Oedema peripheral, all-grade AE of any cause: 15 (18) n (%)
On-study deaths: 3 (4) n (%)
Oropharyngeal pain, all-grade AE of any cause: 13 (16) n (%)
Pain in extremity, grade ≥3 AE of any cause: 3 (4) n (%)
Pneumonia, grade ≥3 AE of any cause: 2 (2) n (%)
Pruritus generalised, all-grade AE of any cause: 19 (23) n (%)
Pruritus generalised, treatment-related AE: 15 (18) n (%)
Pruritus generalised, treatment-related grade ≥3 AE: 1 (1) n (%)
Pruritus, all-grade AE of any cause: 15 (18) n (%)
Pruritus, treatment-related AE: 11 (13) n (%)
Pyrexia, all-grade AE of any cause: 14 (17) n (%)
Rash maculo-papular, all-grade AE of any cause: 24 (29) n (%)
Rash maculo-papular, grade ≥3 AE of any cause: 4 (5) n (%)
Rash maculo-papular, treatment-related AE: 17 (21) n (%)
Rash maculo-papular, treatment-related grade ≥3 AE: 3 (4) n (%)
Rash, treatment-related AE: 2 (2) n (%)
Rash, treatment-related grade ≥3 AE: 0 (0) n (%)
Sepsis, grade ≥3 AE of any cause: 2 (2) n (%)
Stomatitis (includes oropharyngeal pain and mucosal inflammation), treatment-related AE: 37 (45) n (%)
Stomatitis, all-grade AE of any cause: 40 (49) n (%)
Stomatitis, grade ≥3 AE of any cause: 4 (5) n (%)
Stomatitis, treatment-related grade ≥3 AE: 4 (5) n (%)
Thrombocytopenia, grade ≥3 AE of any cause: 4 (5) n (%)
Thrombocytopenia, treatment-related grade ≥3 AE: 4 (5) n (%)
Transitional cell carcinoma, grade ≥3 AE of any cause: 2 (2) n (%)
Urinary tract infection, all-grade AE of any cause: 15 (18) n (%)
Vomiting, all-grade AE of any cause: 43 (52) n (%)
Vomiting, grade ≥3 AE of any cause: 3 (4) n (%)
Vomiting, treatment-related AE: 41 (50) n (%)
Weight decreased, all-grade AE of any cause: 15 (18) n (%)
Weight decreased, treatment-related AE: 9 (11) n (%)
